Experiment: Rabbit immunity suppression: body weight change after administration of the immunosuppressive agent
Type: in vivo, Japanese white rabbit
Conditions: 4 mg/kg per dose to femoral muscle once a week; 2 weeks after starting the administration; average of 15 rabbits
Experimental: 14 week old Japanese white rabbits (Kbl: JW, Kitayama Labes Co., Ltd.) were quarantined and acclimatized for 1 week. After acclimatization, a long-acting methylprednisolone acetate preparation (Depo Melcort, Fuji Pharma Co., Ltd.) was administered as an immunosuppressive agent to femoral muscle a total of three times, with 4 mg/kg as the amount administered in one dose, at intervals of once a week. […] At a point 2 weeks after starting the administration, at which the average of the weights of a total of 15 rabbits had decreased by about 6% from the weight prior to administration, inoculation with a fungal liquid was carried out.

With `CC(=O)OCC(=O)[C@@]1(O)CC[C@H]2[C@@H]3C[C@H](C)C4=CC(=O)C=C[C@]4(C)[C@H]3[C@@H](O)C[C@@]21C` [methylprednisolone acetate] the “decrease of average weight from the weight prior to administration (indicator of immunocompromise)” value was “about 6%”.

From US9491933B2, “Infected nail of animal infected with fungus” (POLA PHARMA, INC., priority 2007, dated 2016)
